Values after ≈ are worked out from the molar mass of the structure shown.
Assays:
[1] = system: L929 cells; experiment: CT50 cytotoxicity in L929 cells; settings: pH 7 phosphate
[2] = system: S. aureus 29213; experiment: MBC/MFC against S. aureus 29213; type: cell-based; settings: Staphylococcus aureus
[3] = system: C. albicans 10231; experiment: MBC/MFC against C. albicans 10231; type: cell-based; settings: Candida albicans
[4] = system: E. coli 25922; experiment: MBC/MFC against E. coli 25922; type: cell-based; settings: Escherichia coli

| Compound | CT50 L929 cells ([1]; Table 3) [mM] | MBC ([2]; pH 4 acetate, Table 3) [µg/mL] | MBC ([2]; pH 7 phosphate, Table 3) [µg/mL] | MFC ([3]; pH 4 acetate, Table 3) [µg/mL] | MFC ([3]; pH 7 phosphate, Table 3) [µg/mL] | MBC ([4]; pH 4 acetate, Table 3) [µg/mL] | MBC ([4]; pH 7 phosphate, Table 3) [µg/mL] | CT50 L929 cells ([1]; Table 4) [mM] | MBC ([2]; pH 4 acetate, Table 4) [µg/mL] | MBC ([2]; pH 7 phosphate, Table 4) [µg/mL] | MFC ([3]; pH 4 acetate, Table 4) [µg/mL] | MFC ([3]; pH 7 phosphate, Table 4) [µg/mL] | MBC ([4]; pH 4 acetate, Table 4) [µg/mL] | MBC ([4]; pH 7 phosphate, Table 4) [µg/mL] |
| --- | --- | --- | --- | --- | --- | --- | --- | --- | --- | --- | --- | --- | --- | --- |
| COCCOCCOCCS(=O)(=O)CC(C)(C)N(Cl)Cl [Compound 38-01, dichloro[1-({2-[2-(2-methoxyethoxy)ethoxy]ethane}sulfonyl)-2-methylpropan-2-yl]amine] | 0.06 | 2 (≈ 5.68 µM) | 256 (≈ 727 µM) | 32 (≈ 90.8 µM) | > 512 | 2 (≈ 5.68 µM) | 256 (≈ 727 µM) |  |  |  |  |  |  |  |
| CC(C)(CCS(=O)(=O)CCO)N(Cl)Cl [Compound 38-25, 2-(3-(Dichloroamino)-3-methylbutylsulfonyl)ethanol] |  | 1 (≈ 3.79 µM) | 16 (≈ 60.6 µM) | 16 (≈ 60.6 µM) | 512 (≈ 1940 µM) | 0.5 (≈ 1.89 µM) | 8 (≈ 30.3 µM) |  |  |  |  |  |  |  |
| CC(C)(CCS(=O)(=O)CC(O)CO)N(Cl)Cl (stereo not drawn) [Compound 38-27, 3-(3-(Dichloroamino)-3-methylbutylsulfonyl)propane-1,2-diol] | 0.13 | 2 (≈ 6.8 µM) | 4 (≈ 13.6 µM) | > 256 | > 1020 | 2 (≈ 6.8 µM) | 16 (≈ 54.4 µM) |  |  |  |  |  |  |  |
| CC(C)(CCS(=O)(=O)CC(O)C(O)CO)N(Cl)Cl (stereo not drawn) [Compound 38-29, 4-(3-(Dichloroamino)-3-methylbutylsulfonyl)butane-1,2,3-triol] |  | 1 (≈ 3.08 µM) | 32 (≈ 98.7 µM) | 256 (≈ 790 µM) | > 1020 | 2 (≈ 6.17 µM) | 128 (≈ 395 µM) |  |  |  |  |  |  |  |
| COCC[N+](C)(C)CCC(C)(C)N(Cl)Cl.[Cl-] [Compound 38-43, 3-(dichloroamino)-N-(2-methoxyethyl)-N,N,3-trimethylbutan-1-aminium chloride] | 1.2 | 1 | 512 | 32 | > 2050 | 2 | 1020 |  |  |  |  |  |  |  |
| COCCOCCOCC[N+](C)(C)CCC(C)(C)N(Cl)Cl [Compound 38-45, 3-(dichloroamino)-N-(2-(2-(2-methoxyethoxy)ethoxy)ethyl)-N,N,3-trimethylbutan-1-aminium 4-methylbenzenesulfonate] | 3.2 | 4 | 1020 | 64 | > 2050 | 4 | 1020 |  |  |  |  |  |  |  |
| CC(=O)OCC(O)CS(=O)(=O)CCC(C)(C)N(Cl)Cl (stereo not drawn) [Compound 38-49, 3-(3-(Dichloroamino)-3-methylbutylsulfonyl)-2-hydroxypropyl acetate] |  | 4 | 32 | 16 | > 512 | 2 | 64 |  |  |  |  |  |  |  |
| CC(=O)OCC(CS(=O)(=O)CCC(C)(C)N(Cl)Cl)OC(C)=O (stereo not drawn) [Compound 38-51, 3-(3-(Dichloroamino)-3-methylbutylsulfonyl)propane-1,2-diyl diacetate] |  | 2 | 128 | 16 | 128 | 1 | 128 |  |  |  |  |  |  |  |
| CC(C)(CCS(=O)(=O)CCOCCOCCS(=O)(=O)O)N(Cl)Cl [Compound 38-81, 2-(2-(2-(3-(dichloroamino)-3-methylbutylsulfonyl)ethoxy)ethoxy) ethanesulfonic acid] | 2.13 | 4 (≈ 9.61 µM) | 256 (≈ 615 µM) | 128 (≈ 307 µM) | > 2050 | 2 (≈ 4.8 µM) | 32 (≈ 76.9 µM) |  |  |  |  |  |  |  |
| CC(C)(CCS(=O)(=O)CCOCCS(=O)(=O)O)N(Cl)Cl [Compound 38-83, 2-(2-(3-(dichloroamino)-3-methylbutylsulfonyl)ethoxy)ethanesulfonic acid] | 1.74 | 1 (≈ 2.69 µM) | 256 (≈ 688 µM) | 128 (≈ 344 µM) | > 1020 | 2 (≈ 5.37 µM) | 128 (≈ 344 µM) |  |  |  |  |  |  |  |
| CC(C)(CCS(=O)(=O)CCOCCOCCO)N(Cl)Cl [Compound 38-85, 2-(2-(2-(3-(Dichloroamino)-3-methylbutylsulfonyl)ethoxy)ethoxy)ethanol] | 0.04 | 4 (≈ 11.4 µM) | 64 (≈ 182 µM) | 32 (≈ 90.8 µM) | > 1020 | 4 (≈ 11.4 µM) | 64 (≈ 182 µM) |  |  |  |  |  |  |  |
| CC(=O)OCCOCCOCCS(=O)(=O)CCC(C)(C)N(Cl)Cl [Compound 38-87, 2-(2-(2-(3-(Dichloroamino)-3-methylbutylsulfonyl)ethoxy)ethoxy)ethyl acetate] |  | 4 | 128 | 32 | 512 | 4 | 128 |  |  |  |  |  |  |  |
| CCOCCOCCOCCS(=O)(=O)CCC(C)(C)N(Cl)Cl [Compound 38-89, N,N-dichloro-4-(2-(2-(2-ethoxyethoxy)ethoxy)ethylsulfonyl)-2-methylbutan-2-amine] | 0.06 | 8 (≈ 21 µM) | 128 (≈ 337 µM) | 4 (≈ 10.5 µM) | 512 (≈ 1350 µM) | 8 (≈ 21 µM) | 256 (≈ 673 µM) |  |  |  |  |  |  |  |
| CC(C)(C)OCCOCCOCCS(=O)(=O)CCC(C)(C)N(Cl)Cl [Compound 38-91, N,N-dichloro-4-(2-(2-(2-tert-butoxyethoxy)ethoxy)ethylsulfonyl)-2-methylbutan-2-amine] |  | 4 (≈ 9.79 µM) | 128 (≈ 313 µM) | 16 (≈ 39.2 µM) | 128 (≈ 313 µM) | 8 (≈ 19.6 µM) | > 256 |  |  |  |  |  |  |  |
| CCCCOCC[N+](C)(C)CCC(C)(C)N(Cl)Cl.[Cl-] [Compound 38-133, N-(2-butoxyethyl)-3-(dichloroamino)-N,N,3-trimethylbutan-1-aminium chloride] | 0.26 | 8 | 128 | 64 | 1020 | 8 | 128 |  |  |  |  |  |  |  |
| CCCCCCOCC[N+](C)(C)CCC(C)(C)N(Cl)Cl.Cc1ccc(S(=O)(=O)[O-])cc1 [Compound 38-135, 3-(dichloroamino)-N-(2-(hexyloxy)ethyl)-N,N,3-trimethylbutan-1-aminium 4-methylbenzenesulfonate] | 0.08 | 2 | 512 | 32 | > 1020 | 8 | 256 |  |  |  |  |  |  |  |
| COCCC[N+](C)(C)CCC(C)(C)N(Cl)Cl [Compound 38-137, 3-(dichloroamino)-N-(3-methoxypropyl)-N,N,3-trimethylbutan-1-aminium chloride] | 1.62 | 4 | > 1020 | 32 | > 1020 | 8 | 512 |  |  |  |  |  |  |  |
| CO[C@H]1O[C@H](CS(=O)(=O)CCC(C)(C)N(Cl)Cl)[C@@H](O)[C@H](O)[C@H]1O [Compound 38-141, (2S,3S,4S,5R,6S)-2-(((3-(dichloroamino)-3-methylbutyl)sulfonyl)methyl)-6-methoxytetrahydro-2H-pyran-3,4,5-triol] |  | 8 (≈ 20.2 µM) | 256 (≈ 646 µM) | 16 (≈ 40.4 µM) | > 1020 | 8 (≈ 20.2 µM) | 512 (≈ 1290 µM) |  |  |  |  |  |  |  |
| CC(C)(CCS(=O)(=O)C(CO)C(O)CO)N(Cl)Cl (stereo not drawn) [Compound 38-145, 3-(3-(Dichloroamino)-3-methylbutylsulfonyl)butane-1,2,4-triol] |  | 2 (≈ 6.17 µM) | 16 (≈ 49.3 µM) | 64 (≈ 197 µM) | 1020 (≈ 3160 µM) | 2 (≈ 6.17 µM) | 64 (≈ 197 µM) |  |  |  |  |  |  |  |
| COCCOCCOCCOCCS(=O)(=O)CCC(C)(C)N(Cl)Cl [Compound 38-147, N,N-dichloro-2-methyl-4-(2-(2-(2-(2-methoxyethoxy)ethoxy)ethoxy)ethylsulfonyl)butan-2-amine] | 0.039 | 8 (≈ 19.5 µM) | 128 (≈ 312 µM) | > 256 | 2050 (≈ 4990 µM) | 8 (≈ 19.5 µM) | 256 (≈ 624 µM) |  |  |  |  |  |  |  |
| CC(C)(CC[N+](C)(C)CCCO)N(Cl)Cl [Compound 38-151, 3-(dichloroamino)-N-(3-hydroxypropyl)-N,N,3-trimethylbutan-1-aminium] | 0.12 | 4 | > 2050 | 64 | > 1020 | 4 | 1020 |  |  |  |  |  |  |  |
| COCCN1C(=O)C(C)(C)N(Cl)C1(C)C [Compound 39-01, 1-chloro-3-(2-methoxyethyl)-2,2,5,5-tetramethylimidazolidin-4-one] |  |  |  |  |  |  |  | 0.08 | 2 (≈ 8.52 µM) | 128 (≈ 545 µM) | 8 (≈ 34.1 µM) | 256 (≈ 1090 µM) | 2 (≈ 8.52 µM) | 128 (≈ 545 µM) |
| COCCOCCOCCN1C(=O)C(C)(C)N(Cl)C1(C)C [Compound 39-04, 1-Chloro-3-(2-(2-(2-methoxyethoxy)ethoxy)ethyl)-2,2,5,5-tetramethylimidazolidin-4-one] |  |  |  |  |  |  |  | 0.14 | 2 (≈ 6.2 µM) | 256 (≈ 793 µM) | 16 (≈ 49.6 µM) | 1020 (≈ 3170 µM) | 2 (≈ 6.2 µM) | 256 (≈ 793 µM) |
| COCCOCCOCCOCCN1C(=O)C(C)(C)N(Cl)C1(C)C [Compound 39-12, 1-chloro-2,2,5,5-tetramethyl-3-(2,5,8,11-tetraoxatridecan-13-yl)imidazolidin-4-one] |  |  |  |  |  |  |  | 0.18 | 8 (≈ 21.8 µM) | 256 (≈ 698 µM) | 16 (≈ 43.6 µM) | > 1020 | 8 (≈ 21.8 µM) | 256 (≈ 698 µM) |
| CC1(C)C(=O)N(CC(O)CO)C(C)(C)N1Cl (stereo not drawn) [Compound 39-27, 1-chloro-3-(2,3-dihydroxypropyl)-2,2,5,5-tetramethylimidazolidin-4-one] |  |  |  |  |  |  |  | 0.14 | 4 (≈ 16 µM) | 1020 (≈ 4080 µM) | 16 (≈ 63.8 µM) | > 2050 | 4 (≈ 16 µM) | 512 (≈ 2040 µM) |
| COCCOCCOCC[N+]1(C)CC(C)(C)N(Cl)C(C)(C)C1.[Cl-] [Compound 39-106, 4-chloro-1-(2-(2-(2-methoxyethoxy)ethoxy)ethyl)-1,3,3,5,5-pentamethylpiperazin-1-ium chloride] |  |  |  |  |  |  |  | 0.24 | 32 | > 512 | 64 | > 512 | 16 | 256 |
